Source: patent publication US20230051589A1, “COMPOUNDS AND COMPOSITIONS FOR TREATING CONDITIONS ASSOCIATED WITH NLRP ACTIVITY” (Novartis AG, priority 2018, published 2023)
pIC50: −log10 of the molar value.

Each compound was assayed on IL-1β production in PMA-differentiated THP-1 cells (assay: IL-1β production in PMA-differentiated THP-1 cells stimulated with gramicidin (hTHP-1 assay, 2% fetal bovine serum; Procedures 1-3)). Details: Homo sapiens, THP-1, Table B3; hTHP-1 assay containing 2% fetal bovine serum, gramicidin stimulation, IL-1β readout; read-out: hTHP-1 IC50.
Format: cell-based, human
Method in brief: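 PMA-primed THP-1 cells (20 ng/ml PMA, 16-18 h) in RPMI with 2% FBS were pre-incubated with compounds for 1 h, from 100 μM downward in 3-fold steps (0.37% DMSO final), then stimulated with 5 μM gramicidin for 2 h. IL-1β in the supernatant was quantified by HTRF.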

pIC50	SMILES
6.70 to 7.40	C[C@](O)(CO)c1ncc(S(N)(=O)=NC(=O)Nc2c3c(cc4c2C(=O)CC4)CCC3)s1 (stereo partly drawn) [Example 744, 2-((S)-1,2-dihydroxypropan-2-yl)-N′-((3-oxo-1,2,3,5,6,7-hexahydro-s-indacen-4-yl)carbamoyl)thiazole-5-sulfonimidamide]
6.00 to 6.70	NS(=O)(=NC(=O)Nc1c2c(cc3c1CCC3)CCC2)c1ccc([C@H]2CCCN2)s1 (stereo partly drawn) [Example 731, N′-((1,2,3,5,6,7-hexahydro-s-indacen-4-yl)carbamoyl)-5-((R)-pyrrolidin-2-yl)thiophene-2-sulfonimidamide]

Same assay, conditions: Homo sapiens, THP-1, hTHP-1 assay containing 2% fetal bovine serum, Table B2, class symbols; read-out: IC50

SMILES	pIC50
COc1ccc(Cn2nc(S(N)(=O)=NC(=O)Nc3c4c(cc5c3CCC5)CCC4)cc2C(C)(C)O)cc1 (stereo not drawn) [Example 682, N′-((1,2,3,5,6,7-hexahydro-s-indacen-4-yl)carbamoyl)-5-(2-hydroxypropan-2-yl)-1-(4-methoxybenzyl)-1H-pyrazole-3-sulfonimidamide]	6.00 to 6.70
C[C@]1(c2ncc(S(N)(=O)=NC(=O)Nc3c4c(cc5c3CCC5)CCC4)s2)CNC(=O)O1 (stereo partly drawn) [Example 674, N′-((1,2,3,5,6,7-hexahydro-s-indacen-4-yl)carbamoyl)-2-((R)-5-methyl-2-oxooxazolidin-5-yl)thiazole-5-sulfonimidamide]	6.70 to 7.40
CN(C)Cc1ccc(S(N)(=O)=NC(=O)Nc2c3c(cc4c2CC4)CCC3)cc1 (stereo not drawn) [Example 446, 4-((Dimethylamino)methyl)-N′-(2,4,5,6-tetrahydro-1H-cyclobuta[f]inden-3-ylcarbamoyl)benzenesulfonimidamide]	6.00 to 6.70
CC(C)(O)c1sc(S(N)(=O)=NC(=O)Nc2c3c(cc4c2CCC4)CCC3)nc1CO (stereo not drawn) [Compound 893]	6.70 to 7.40
CC(C)(O)c1ncc([S@](N)(=O)=NC(=O)Nc2cc(CCCl)cc3c2CCC3)s1 [Example 514, (R)-N′-((6-(2-chloroethyl)-2,3-dihydro-1H-inden-4-yl)carbamoyl)-2-(2-hydroxypropan-2-yl)thiazole-5-sulfonimidamide]	5.30 to 6.00
CC(C)(O)c1csc(S(N)(=O)=NC(=O)Nc2c3c(cc4c2CCC4=O)CCC3)c1 (stereo not drawn) [Example 434, 4-(2-Hydroxypropan-2-yl)-N′-((1-oxo-1,2,3,5,6,7-hexahydro-s-indacen-4-yl)carbamoyl)thiophene-2-sulfonimidamide]	6.00 to 6.70
CN(C)CCN(C)Cc1cccc(S(N)(=O)=NC(=O)Nc2c3c(cc4c2CCC4)CCC3)c1 (stereo not drawn) [Example 506, 3-(((2-(Dimethylamino)ethyl) (methyl)amino)methyl)-N′-((1,2,3,5,6,7-hexahydro-s-indacen-4-yl)carbamoyl)benzenesulfonimidamide]	4.52 to 5.30
NS(=O)(=NC(=O)Nc1c2c(cc3c1CCC3)CCC2)c1ccc(OC(F)F)cc1 (stereo not drawn) [Example 493, 4-(Difluoromethoxy)-N′-((1,2,3,5,6,7-hexahydro-s-indacen-4-yl)carbamoyl) benzenesulfonimidamide]	4.52 to 5.30
CN(C)C(c1ccc(S(N)(=O)=NC(=O)Nc2c3c(cc4c2CCC4)CCC3)cc1)C(F)(F)F (stereo not drawn) [Example 492, 4-(1-(Dimethylamino)-2,2,2-trifluoroethyl)-N′-((1,2,3,5,6,7-hexahydro-s-indacen-4-yl)carbamoyl)benzenesulfonimidamide]	5.30 to 6.00

The next lines start with the values.

pIC50	SMILES
5.30 to 6.00	CN1CCc2ccc(S(N)(=O)=NC(=O)Nc3c4c(cc5c3CCC5)CCC4)cc2C1 (single isomer, unassigned) [Example 585, (R) or (S)-N′-((1,2,3,5,6,7-hexahydro-s-indacen-4-yl)carbamoyl)-2-methyl-1,2,3,4-tetrahydroisoquinoline-7-sulfonimidamide]
5.30 to 6.00	CCn1ccc([S@@](N)(=O)=NC(=O)Nc2c3c(cc4c2CC4)CCC3)n1 [Compound 916b]
5.30 to 6.00	NS(=O)(=NC(=O)Nc1c2c(cc3c1CCC3)CCC2)c1ccc(C2CCN2)cc1 (stereo not drawn) [Example 444, 4-(Azetidin-2-yl)-N′-((1,2,3,5,6,7-hexahydro-s-indacen-4-yl)carbamoyl)benzenesulfonimidamide]
6.00 to 6.70	CC(C)(O)c1cncc(S(N)(=O)=NC(=O)Nc2c3c(c(C#N)c4c2CCC4)CCC3)c1 (stereo not drawn) [Example 461, N′-((8-cyano-1,2,3,5,6,7-hexahydro-s-indacen-4-yl)carbamoyl)-5-(2-hydroxypropan-2-yl)pyridine-3-sulfomidamide]

Same assay, conditions: Homo sapiens, THP-1, hTHP-1 assay containing 2% fetal bovine serum, Table B2, given as bound; read-out: IC50

pIC50	SMILES
< 4.52	CC(C)(O)c1cnc([S@@](N)(=O)=NC(=O)Nc2c3c(cc4c2CCC4O)CCC3)s1 (stereo partly drawn) [Example 509, (S)-N′-((1-hydroxy-1,2,3,5,6,7-hexahydro-s-indacen-4-yl)carbamoyl)-5-(2-hydroxypropan-2-yl)thiazole-2-sulfonimidamide]

Same assay, conditions: Table B1; hTHP-1 assay containing 2% fetal bovine serum, gramicidin stimulation, IL-1β readout; read-out: hTHP-1 IC50 (average)

pIC50	SMILES
4.52 to 5.30	CNS(=O)(=NC(=O)Nc1c2c(cc3c1CCC3)CCC2)c1cnc(C(C)(C)O)s1 (stereo not drawn) [Example 247, N′-((1,2,3,5,6,7-hexahydro-s-indacen-4-yl)carbamoyl)-2-(2-hydroxypropan-2-yl)-N-methylthiazole-5-sulfon-imidamide]
6.70 to 7.40	CC(c1ccc(S(N)(=O)=NC(=O)Nc2c3c(cc4c2CCC4)CCC3)cc1)N(C)C (single isomer, unassigned) [Example 377, (R, R) or (R, S) or (S, S) or (S, R)-4-(1-(dimethyl-amino)ethyl)-N′-((1,2,3,5,6,7-hexahydro-s-indacen-4-yl)carbamoyl)-benzenesulfonimidamide]
6.00 to 6.70	CC(C)(O)c1ncc(S(N)(=O)=NC(=O)Nc2c3c(cc4c2CCC4=O)CCC3)s1 (single isomer, unassigned) [Example 336, (R) or (S)-2-(2-Hydroxy-propan-2-yl)-N′-((1-oxo-1,2,3,5,6,7-hexahydro-s-indacen-4-yl)carbamoyl)-thiazole-5-sulfonimidamide]

Same assay, conditions: Table B3; hTHP-1 assay containing 2% fetal bovine serum, gramicidin stimulation, IL-1β readout; read-out: hTHP-1 IC50

SMILES	pIC50
NS(=O)(=NC(=O)Nc1c2c(cc3c1CCC3)CCC2)c1sc(CNC2CCC2)cc1F (single isomer, unassigned) [Example 795, (R) or (S)-5-((cyclobutylamino)methyl)-3-fluoro-N′-((1,2,3,5,6,7-hexahydro-s-indacen-4-yl)carbamoyl)thiophene-2-sulfonimidamide]	6.00 to 6.70
CC(NC1CCC1)c1ccc(S(N)(=O)=NC(=O)Nc2c3c(cc4c2CC4)CCC3)c(F)c1 (single isomer, unassigned) [Example 845, (R/S, R)-4-(1-(cyclobutylamino)ethyl)-2-fluoro-N′-((2,4,5,6-tetrahydro-1H-cyclobuta[f]inden-3-yl)carbamoyl)benzenesulfonimidamide]	6.00 to 6.70
CC(NC1CCC1)c1ccc(S(N)(=O)=NC(=O)Nc2c3c(cc4c2CC4)CCC3)c(F)c1 (stereo not drawn) [Example 846, (R/S, S)-4-(1-(cyclobutylamino)ethyl)-2-fIuoro-N′-((2,4,5,6-tetrahydro-1H-cyclobuta[f]inden-3-yl)carbamoyl)benzenesulfonimidamide]	5.30 to 6.00

The remaining lines, values ahead:

pIC50	SMILES
4.52 to 5.30	COC1CCc2c(csc2S(N)(=O)=NC(=O)Nc2c3c(cc4c2CCC4)CCC3)C1 (single isomer, unassigned) [Example 854, (S, S) or (R, S)-N′-((1,2,3,5,6,7-hexahydro-s-indacen-4-yl)carbamoyl)-5-methoxy-4,5,6,7-tetrahydrobenzo[c]thiophene-1-sulfonimidamide]
7.40 to 8.10	C[C@](O)(CO)c1ncc(S(N)(=O)=NC(=O)Nc2c3c(cc4c2CC4)CCC3)s1 (single isomer, unassigned) [Example 815, (R) or (S)-2-((S)-1,2-dihydroxypropan-2-yl)-N′-((2,4,5,6-tetrahydro-1H-cyclobuta[f]inden-3-yl)carbamoyl)thiazole-5-sulfonimidamide]
6.00 to 6.70	NS(=O)(=NC(=O)Nc1c2c(cc3c1CC3)CCC2)c1cc2c(s1)CCNC2C(F)F (single isomer, unassigned) [Example 783, (R) or (S) -4-(difluoromethyl)-N′-((2,4,5,6-tetrahydro-1H-cyclobuta[f]inden-3-yl)carbamoyl)-4,5,6,7-tetrahydrothieno[3,2-c]pyridine-2-sulfonimidamide]

Same assay, conditions: hTHP-1 assay containing 2% fetal bovine serum, Table B2, class symbols; read-out: IC50

SMILES	pIC50
CNCC1(c2ccc(S(N)(=O)=NC(=O)Nc3c4c(cc5c3CCC5)CCC4)c(F)c2)CC1 (single isomer, unassigned) [Example 529, (S) or (R)-2-fluoro-N′-((1,2,3,5,6,7-hexahydro-s-indacen-4-yl)carbamoyl)-4-(1-((methylamino)methyl)cyclopropyl) benzenesulfonimidamide]	4.52 to 5.30
CNCc1csc(S(N)(=O)=NC(=O)Nc2c3c(cc4c2CCC4)CCC3)c1 (single isomer, unassigned) [Example 691, (R) or (S)-N′-((1,2,3,5,6,7-hexahydro-s-indacen-4-yl)carbamoyl)-4-((methylamino)methyl)thiophene-2-sulfonimidamide]	6.70 to 7.40

Next, values leading:

pIC50	SMILES
6.00 to 6.70	CC(C)(O)c1cnc(S(N)(=O)=NC(=O)Nc2c3c(cc4c2C(=O)CC4)CCC3)s1 (single isomer, unassigned) [Example 572, (R) or (S)-5-(2-hydroxypiopan-2-yl)-N′-((3-oxo-1,2,3,5,6,7-hexahydro-s-indacen-4-yl)carbamoyl)thiazole-2-sulfonimidamide]
5.30 to 6.00	CC(OC(F)F)c1ccc(S(N)(=O)=NC(=O)Nc2c3c(cc4c2CCC4)CCC3)cc1 (single isomer, unassigned) [Example 640]
6.00 to 6.70	NS(=O)(=NC(=O)Nc1c2c(cc3c1CCC3)CCC2)c1cc2c(s1)COCC2 (single isomer, unassigned) [Example 693, (R) or (S)-N′-((1,2,3,5,6,7-hexahydro-s-indacen-4-yl)carbamoyl)-4,7-dihydro-5H-thieno[2,3-c]pyran-2-sulfonimidamide]
